PubChem BioAssay AID248 (DTP/NCI, 2004)
Values joined by “and” are separate entries in the source; they are usually repeats but may differ in a detail not shown here. Equal entries are not always repeated. Inconclusive results and toxic doses are left out. Cut-off read from the data, not from the text of the source: active = T/C of 150% or more; inactive = T/C below 125%.

System: L1210 leukemia ip in BDF1 mice, survival T/C
Assay: NCI In Vivo Anticancer Drug Screen. Data for tumor model L1210 Leukemia (intraperitoneal) in B6D2F1 (BDF1) mice
Conditions: endpoint: mean survival time, higher = longer survival
How it was run: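 Tumor cells were implanted, animals were treated, and survival was followed. The result divides the treated measurement by the vehicle-control measurement.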

[1] = dose: 100.0 mg/kg/injection, schedule: Q04DX003 (ip), vehicle: saline with Tween-80
[2] = dose: 200.0 mg/kg/injection, schedule: Q04DX003 (ip), vehicle: saline with Tween-80
[3] = dose: 400.0 mg/kg/injection, schedule: Q04DX003 (ip), vehicle: saline with Tween-80
[4] = dose: 100.0 mg/kg/injection, schedule: Q01DX009 (ip), vehicle: saline with Tween-80
[5] = dose: 100.0 mg/kg/injection, schedule: Q04DX002 (ip), vehicle: saline with Tween-80
[6] = dose: 200.0 mg/kg/injection, schedule: Q01DX009 (ip), vehicle: saline with Tween-80
[7] = dose: 200.0 mg/kg/injection, schedule: Q04DX002 (ip), vehicle: saline with Tween-80
[8] = dose: 400.0 mg/kg/injection, schedule: Q01DX009 (ip), vehicle: saline with Tween-80
[9] = dose: 400.0 mg/kg/injection, schedule: Q04DX002 (ip), vehicle: saline with Tween-80
[10] = dose: 75.0 mg/kg/injection, schedule: Q01DX001 (ip), vehicle: saline
[11] = dose: 150.0 mg/kg/injection, schedule: Q01DX001 (ip), vehicle: saline
[12] = dose: 100.0 mg/kg/injection, schedule: Q01DX001 (ip), vehicle: Klucel (hydroxypropylcellulose) (HPC)
[13] = dose: 200.0 mg/kg/injection, schedule: Q01DX001 (ip), vehicle: Klucel (hydroxypropylcellulose) (HPC)
[14] = dose: 400.0 mg/kg/injection, schedule: Q01DX001 (ip), vehicle: Klucel (hydroxypropylcellulose) (HPC)
[15] = dose: 100.0 mg/kg/injection, schedule: Q01DX009 (ip), vehicle: Klucel (hydroxypropylcellulose) (HPC)
[16] = dose: 100.0 mg/kg/injection, schedule: Q04DX003 (ip), vehicle: Klucel (hydroxypropylcellulose) (HPC)
[17] = dose: 200.0 mg/kg/injection, schedule: Q01DX009 (ip), vehicle: Klucel (hydroxypropylcellulose) (HPC)
[18] = dose: 200.0 mg/kg/injection, schedule: Q04DX003 (ip), vehicle: Klucel (hydroxypropylcellulose) (HPC)
[19] = dose: 400.0 mg/kg/injection, schedule: Q04DX003 (ip), vehicle: Klucel (hydroxypropylcellulose) (HPC)
[20] = dose: 400.0 mg/kg/injection, schedule: Q01DX009 (ip), vehicle: Klucel (hydroxypropylcellulose) (HPC)

Measured: T/C

Nc1nc(=O)c2ccccc2s1
inactive: dose: 100.0 mg/kg/injection, schedule: Q01DX001 (ip), vehicle: saline 97 % of control | [1] 101 % of control | dose: 200.0 mg/kg/injection, schedule: Q01DX001 (ip), vehicle: saline 98 % of control | [2] 108 % of control | dose: 400.0 mg/kg/injection, schedule: Q01DX001 (ip), vehicle: saline 97 % of control | [3] 106 % of control

CN(C(=O)c1ccccc1Cl)C(c1ccco1)P(=O)(c1ccccc1)c1ccccc1 (stereo not drawn)
inactive: [4] 93 % of control | [5] 93 % of control | [6] 90 % of control | [7] 90 % of control | [8] 87 % of control | [9] 90 % of control

CCOC(=O)c1c(-c2ccccc2)csc1N
inactive: dose: 50.0 mg/kg/injection, schedule: Q04DX003 (ip), vehicle: saline with Tween-80 97 % of control | [1] 94 % of control | [2] 90 % of control

CC12CCC(Cl)(CC1O)C2(C)C (stereo not drawn)
inactive: [10] 102 % of control | [11] 97 % of control

Cc1cc(C)c(C2=C(Br)C(=O)C(c3c(C)cc(C)c(C)c3C)=C(Br)C2=O)c(C)c1C
inactive: [12] 98 % of control | [13] 103 % of control | [14] 98 % of control

CCOC(=O)c1cc(OCC)c2c(ccc3ccccc32)n1
inactive: dose: 100.0 mg/kg/injection, schedule: Q01DX001 (ip), vehicle: carboxymethylcellulose (CMC) 97 % of control | dose: 100.0 mg/kg/injection, schedule: Q01DX009 (ip), vehicle: carboxymethylcellulose (CMC) 95 % of control and 103 % of control | dose: 100.0 mg/kg/injection, schedule: Q04DX002 (ip), vehicle: carboxymethylcellulose (CMC) 102 % of control and 105 % of control | dose: 100.0 mg/kg/injection, schedule: Q04DX003 (ip), vehicle: carboxymethylcellulose (CMC) 103 % of control | dose: 200.0 mg/kg/injection, schedule: Q01DX001 (ip), vehicle: carboxymethylcellulose (CMC) 112 % of control | dose: 200.0 mg/kg/injection, schedule: Q01DX009 (ip), vehicle: carboxymethylcellulose (CMC) 98 % of control and 106 % of control | dose: 200.0 mg/kg/injection, schedule: Q04DX002 (ip), vehicle: carboxymethylcellulose (CMC) 97 % of control and 102 % of control | dose: 200.0 mg/kg/injection, schedule: Q04DX003 (ip), vehicle: carboxymethylcellulose (CMC) 97 % of control | dose: 400.0 mg/kg/injection, schedule: Q01DX001 (ip), vehicle: carboxymethylcellulose (CMC) 100 % of control | dose: 400.0 mg/kg/injection, schedule: Q01DX009 (ip), vehicle: carboxymethylcellulose (CMC) 98 % of control and 101 % of control | dose: 400.0 mg/kg/injection, schedule: Q04DX002 (ip), vehicle: carboxymethylcellulose (CMC) 96 % of control and 97 % of control | dose: 400.0 mg/kg/injection, schedule: Q04DX003 (ip), vehicle: carboxymethylcellulose (CMC) 102 % of control

CC1CC([O-])=N/[N+]1=C/c1ccc(N(C)C)cc1 (stereo not drawn)
inactive: dose: 80.0 mg/kg/injection, schedule: Q01DX001 (ip), vehicle: saline with Tween-80 98 % of control | dose: 160.0 mg/kg/injection, schedule: Q01DX001 (ip), vehicle: saline with Tween-80 98 % of control | dose: 320.0 mg/kg/injection, schedule: Q01DX001 (ip), vehicle: saline with Tween-80 92 % of control

Cc1cccc(NC=O)c1
inactive: [4] 100 % of control | [1] 97 % of control | [6] 98 % of control | [2] 102 % of control | [8] 99 % of control

Cc1ccc(COC(=O)Nc2ccc(Cl)c([N+](=O)[O-])c2)cc1
inactive: [4] 92 % of control | [1] 102 % of control | [6] 100 % of control | [2] 100 % of control | [8] 95 % of control | [3] 100 % of control

CCCCNC(C)(C)C(SS)c1cccs1 (stereo not drawn)
inactive: dose: 100.0 mg/kg/injection, schedule: Q04DX003 (ip), vehicle: saline sonified 96 % of control | dose: 200.0 mg/kg/injection, schedule: Q04DX003 (ip), vehicle: saline sonified 92 % of control | dose: 400.0 mg/kg/injection, schedule: Q04DX003 (ip), vehicle: saline sonified 96 % of control

COc1ccc(NC(=O)N(C)Cc2ccccc2Cl)cc1
inactive: dose: 100.0 mg/kg/injection, schedule: Q04DX002 (ip), vehicle: Klucel (hydroxypropylcellulose) (HPC) 96 % of control | dose: 200.0 mg/kg/injection, schedule: Q04DX002 (ip), vehicle: Klucel (hydroxypropylcellulose) (HPC) 110 % of control | dose: 400.0 mg/kg/injection, schedule: Q04DX002 (ip), vehicle: Klucel (hydroxypropylcellulose) (HPC) 104 % of control

CCCCN=C(NC(=S)Nc1ccc(Cl)cc1)SCC
inactive: [5] 95 % of control | [7] 92 % of control | [9] 95 % of control

CC(C)c1ccc(C(c2c(O)c3ccccc3oc2=O)c2c(O)c3ccccc3oc2=O)cc1
inactive: [15] 90 % of control | [16] 106 % of control | [17] 103 % of control | [18] 100 % of control | [19] 105 % of control

COc1ccc(Br)cc1C1OC(=O)c2c(OC)c(OC)cc(O)c21 (stereo not drawn)
inactive: [12] 96 % of control | [13] 98 % of control | [14] 94 % of control

COc1ccc(Cc2nc3ccc(Cl)cc3[nH]2)cc1
inactive: dose: 100.0 mg/kg/injection, schedule: Q04DX003 (ip), vehicle: other 101 % of control | dose: 200.0 mg/kg/injection, schedule: Q04DX003 (ip), vehicle: other 98 % of control | dose: 400.0 mg/kg/injection, schedule: Q04DX003 (ip), vehicle: other 98 % of control

O=C(O)C(Br)CCCCC(Br)C(=O)O (stereo not drawn)
inactive: dose: 100.0 mg/kg/injection, schedule: Q01DX001 (ip), vehicle: steriod suspending solution 105 % of control | dose: 200.0 mg/kg/injection, schedule: Q01DX001 (ip), vehicle: steriod suspending solution 97 % of control | dose: 400.0 mg/kg/injection, schedule: Q01DX001 (ip), vehicle: steriod suspending solution 105 % of control

Cc1cc[n+](CCC(N)=O)cc1
inactive: dose: 100.0 mg/kg/injection, schedule: Q01DX009 (ip), vehicle: saline 95 % of control | dose: 100.0 mg/kg/injection, schedule: Q04DX003 (ip), vehicle: saline 93 % of control | dose: 200.0 mg/kg/injection, schedule: Q01DX009 (ip), vehicle: saline 93 % of control | dose: 200.0 mg/kg/injection, schedule: Q04DX003 (ip), vehicle: saline 98 % of control | dose: 400.0 mg/kg/injection, schedule: Q01DX009 (ip), vehicle: saline 93 % of control | dose: 400.0 mg/kg/injection, schedule: Q04DX003 (ip), vehicle: saline 102 % of control

COC(=O)c1n[nH]c(C)c1N=NN1CCOCC1
inactive: [10] 105 % of control | [11] 103 % of control | dose: 300.0 mg/kg/injection, schedule: Q01DX001 (ip), vehicle: saline 105 % of control

COc1ccc(Cl)cc1NC(=O)Oc1ccc(C=O)cc1OC
inactive: [15] 102 % of control and 114 % of control | [17] 98 % of control and 104 % of control | [20] 104 % of control and 109 % of control

COc1cc(/C=C2\C(=O)NC(=O)N(c3ccccc3)C2=O)cc(OC)c1OC
inactive: dose: 50.0 mg/kg/injection, schedule: Q01DX009 (ip), vehicle: saline with Tween-80 101 % of control | [4] 100 % of control

CCc1c[n+]([O-])c(C)cc1C(=O)O
inactive: [15] 92 % of control | [16] 97 % of control | [17] 92 % of control | [18] 95 % of control | [20] 92 % of control | [19] 95 % of control

CCC[CH2][Sn]1([CH2]CCC)[O]OC2([O]1)C1CC3CC(C1)CC2C3 (stereo not drawn)
inactive: dose: 3.0 mg/kg/injection, schedule: Q04DX002 (ip), vehicle: Klucel (hydroxypropylcellulose) (HPC) 90 % of control | dose: 6.0 mg/kg/injection, schedule: Q04DX002 (ip), vehicle: Klucel (hydroxypropylcellulose) (HPC) 108 % of control | dose: 12.0 mg/kg/injection, schedule: Q04DX002 (ip), vehicle: Klucel (hydroxypropylcellulose) (HPC) 108 % of control | dose: 12.5 mg/kg/injection, schedule: Q04DX002 (ip), vehicle: Klucel (hydroxypropylcellulose) (HPC) 101 % of control
